This is an account of results in ChEMBL document CHEMBL1136937, “Discovery of a potent class I selective ketone histone deacetylase inhibitor with antitumor activity in vivo and optimized pharmacokinetic properties” (J Med Chem, 2009).

The target of data set [1] is T1, Cytochrome P450 3A4 (Homo sapiens, UniProt P08684). As to the kind of experiment: Induction of CYP3A4. In kind it is ADME.
Data set [2] is described as follows: Oral bioavailability in Beagle dog at 2 mg/kg. It is filed as ADME, organism-based, Canis lupus familiaris. The following applies: in vivo.
Data set [3] can be described thus: Metabolic stability in rat liver microsomes assessed as intrinsic clearance at 1 uM after 90 mins. It is filed as ADME, Microsome. A general note: Liver microsomes are a subcellular fraction often used to study metabolism.
A short description of data set [4]: Terminal half life in Beagle dog at 1 mg/kg, iv and 2 mg/kg, po. In kind it is ADME, organism-based, Canis lupus familiaris. The conditions noted are these: in vivo, read-out: beta t1/2 (converted).
For data set [5], the target named is T1, Cytochrome P450 3A4. Description: Inhibition of CYP3A4. In kind it is ADME.
Data set [6] can be described thus: Metabolic stability in dog liver microsomes assessed as intrinsic clearance at 1 uM after 90 mins. The conditions noted are these: liver microsomes. In kind it is ADME, Canis lupus familiaris, Microsome.
The test system of another data set is A2780. As to the kind of experiment: Antiproliferative activity against human A2780 cells after 72 hrs by celltiter-blue cell viability assay. It is filed as functional. The conditions noted are these: A2780, 72 h.
Data set [7] is described as follows: Solubility in buffered aqueous solution at pH 4.1. In kind it is physicochemical.
Another data set relates to Mus musculus. Description: Toxicity in BALB/c nu/nu mouse assessed as body weight loss at 10 mg/kg, ip administered once daily for 5 days per week. In kind it is organism-based. Further details: dose 10 mg/kg, route intraperitoneal. The following applies: in vivo, 120 h.
A short description of data set [8]: Oral bioavailability in Sprague-Dawley rat at 3 mg/kg. In kind it is ADME, organism-based. The following applies: in vivo.
The target in another data set is T2, Histone deacetylase 7 (Homo sapiens, UniProt Q8WUI4).
T2 sequence (Q8WUI4 whole entry): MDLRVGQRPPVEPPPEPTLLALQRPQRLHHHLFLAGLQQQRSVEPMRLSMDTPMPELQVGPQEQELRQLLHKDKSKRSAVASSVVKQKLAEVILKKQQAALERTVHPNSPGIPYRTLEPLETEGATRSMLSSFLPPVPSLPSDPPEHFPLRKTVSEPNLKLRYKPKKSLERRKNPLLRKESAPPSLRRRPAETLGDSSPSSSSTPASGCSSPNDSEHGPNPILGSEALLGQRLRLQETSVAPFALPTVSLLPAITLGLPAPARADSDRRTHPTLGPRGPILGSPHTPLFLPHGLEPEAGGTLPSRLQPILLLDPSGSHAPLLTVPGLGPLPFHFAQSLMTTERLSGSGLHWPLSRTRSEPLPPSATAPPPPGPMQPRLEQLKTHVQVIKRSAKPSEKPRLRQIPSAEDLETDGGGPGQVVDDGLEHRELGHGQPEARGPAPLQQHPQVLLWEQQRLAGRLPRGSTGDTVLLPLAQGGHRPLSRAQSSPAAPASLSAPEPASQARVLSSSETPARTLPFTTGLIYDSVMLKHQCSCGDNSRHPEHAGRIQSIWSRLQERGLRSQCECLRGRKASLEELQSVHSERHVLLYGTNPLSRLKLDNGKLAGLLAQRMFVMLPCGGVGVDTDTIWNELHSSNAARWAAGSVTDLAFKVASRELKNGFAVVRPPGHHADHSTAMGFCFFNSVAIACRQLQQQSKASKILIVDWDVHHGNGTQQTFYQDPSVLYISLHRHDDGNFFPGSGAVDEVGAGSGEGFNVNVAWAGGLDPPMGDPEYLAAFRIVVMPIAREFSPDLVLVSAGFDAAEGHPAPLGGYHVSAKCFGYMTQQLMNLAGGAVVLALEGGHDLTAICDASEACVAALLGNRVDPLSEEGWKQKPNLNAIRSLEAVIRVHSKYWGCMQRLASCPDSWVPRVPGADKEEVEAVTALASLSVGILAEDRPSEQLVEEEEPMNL
As to the kind of experiment: Inhibition of wild type His-tagged HDAC7 catalytic domain T515-L952 expressed in Escherichia coli.

Data set [9] in a line: Terminal half life in Sprague-Dawley rat at 3 mg/kg, iv and 3 mg/kg, po. In kind it is ADME, organism-based. The following applies: in vivo, read-out: beta t1/2 (converted).
A further data set deals with A549. Description: Antiproliferative activity against human P53 expressing A549 cells after 72 hrs by celltiter-blue cell viability assay. In kind it is functional. The following applies: A549, 72 h.
Data set [10] is described as follows: Plasma concentration in Beagle dog at 2 mg/kg, po after 24 hrs. It is filed as ADME, organism-based, Canis lupus familiaris. Details: dose 2 mg/kg, route oral.
In another data set the test system is U-937. Description: Antiproliferative activity against human U937 cells after 72 hrs by celltiter-blue cell viability assay. It is filed as functional. The following applies: U-937, 72 h.
Data set [11] concerns the target T3, Protein deacetylase HDAC6 (Homo sapiens, UniProt Q9UBN7).
T3 sequence (Q9UBN7 whole entry): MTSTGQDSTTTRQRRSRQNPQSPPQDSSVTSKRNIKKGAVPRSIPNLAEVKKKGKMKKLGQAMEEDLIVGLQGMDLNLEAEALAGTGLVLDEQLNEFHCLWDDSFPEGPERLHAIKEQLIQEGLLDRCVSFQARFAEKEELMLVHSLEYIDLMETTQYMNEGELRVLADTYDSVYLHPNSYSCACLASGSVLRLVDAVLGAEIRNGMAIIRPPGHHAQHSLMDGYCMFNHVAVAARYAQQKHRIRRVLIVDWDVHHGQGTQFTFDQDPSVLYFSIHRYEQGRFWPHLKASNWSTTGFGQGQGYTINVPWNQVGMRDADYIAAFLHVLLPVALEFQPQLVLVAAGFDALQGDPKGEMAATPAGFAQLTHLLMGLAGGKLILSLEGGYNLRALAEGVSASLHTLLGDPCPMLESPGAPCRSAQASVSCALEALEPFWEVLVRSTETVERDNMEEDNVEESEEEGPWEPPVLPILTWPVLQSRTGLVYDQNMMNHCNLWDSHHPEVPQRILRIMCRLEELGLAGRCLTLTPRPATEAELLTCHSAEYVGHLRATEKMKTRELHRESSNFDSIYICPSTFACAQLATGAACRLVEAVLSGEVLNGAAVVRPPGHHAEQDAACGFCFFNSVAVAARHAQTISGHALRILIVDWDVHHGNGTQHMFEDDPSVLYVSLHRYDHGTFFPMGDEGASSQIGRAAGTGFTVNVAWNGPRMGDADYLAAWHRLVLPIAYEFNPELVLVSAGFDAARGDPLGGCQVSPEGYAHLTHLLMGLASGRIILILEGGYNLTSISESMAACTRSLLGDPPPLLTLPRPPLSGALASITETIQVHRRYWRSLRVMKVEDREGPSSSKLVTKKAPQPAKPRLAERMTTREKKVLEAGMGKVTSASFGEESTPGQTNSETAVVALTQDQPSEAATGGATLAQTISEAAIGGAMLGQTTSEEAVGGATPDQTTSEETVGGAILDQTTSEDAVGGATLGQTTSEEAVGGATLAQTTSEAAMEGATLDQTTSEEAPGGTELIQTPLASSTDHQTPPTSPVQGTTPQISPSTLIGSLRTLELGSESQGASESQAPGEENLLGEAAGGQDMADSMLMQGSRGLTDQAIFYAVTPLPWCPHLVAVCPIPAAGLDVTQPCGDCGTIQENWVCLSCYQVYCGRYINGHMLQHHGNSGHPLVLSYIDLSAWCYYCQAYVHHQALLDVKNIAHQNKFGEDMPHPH
Description: Inhibition of C-terminal FLAG-tagged HDAC6 expressed in mammalian cells

The next data set concerns HCT-116. Description: Antitumor activity against human HCT116 cells xenografted nude mouse assessed as reduction in tumor growth at […], ip administered once daily for 5 days per week. It is filed as functional, organism-based.
A short description of data set [12]: Metabolic stability in human liver microsomes assessed as intrinsic clearance at 1 uM after 90 mins. The conditions noted are these: liver microsomes. It is filed as ADME, Microsome.
A short description of data set [13]: Clearance in Sprague-Dawley rat plasma at 3 mg/kg, iv and 3 mg/kg, po. It is filed as ADME, organism-based.

Molecules are shown by their SMILES. pIC50: −log10 of the molar value. Values after ≈ are worked out from the molar mass of the structure shown. Active and inactive are the calls of the source. No cut-off for these calls is given here. A value given as a limit tells only on which side of the number the result lay.

T1 sequence (P08684 whole entry): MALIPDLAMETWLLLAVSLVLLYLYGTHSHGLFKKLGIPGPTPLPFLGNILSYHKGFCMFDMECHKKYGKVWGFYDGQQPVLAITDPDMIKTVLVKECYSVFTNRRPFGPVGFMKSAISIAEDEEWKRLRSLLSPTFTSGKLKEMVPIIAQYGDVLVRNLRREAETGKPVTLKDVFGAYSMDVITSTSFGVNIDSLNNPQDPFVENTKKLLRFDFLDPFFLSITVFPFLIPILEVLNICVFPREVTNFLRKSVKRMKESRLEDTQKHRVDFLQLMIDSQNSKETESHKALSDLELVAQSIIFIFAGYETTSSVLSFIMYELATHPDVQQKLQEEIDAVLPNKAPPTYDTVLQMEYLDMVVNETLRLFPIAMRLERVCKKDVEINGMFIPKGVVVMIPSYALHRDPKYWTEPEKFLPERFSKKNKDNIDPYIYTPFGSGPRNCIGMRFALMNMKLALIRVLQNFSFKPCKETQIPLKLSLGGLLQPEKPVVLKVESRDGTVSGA

A word on the bioavailability: it is the share of a dose that reaches the circulation, judged against a reference dose that is usually intravenous. As a reminder, the microsomal CLint is the capacity of the preparation to metabolise the compound, expressed as a volume cleared per time. What is called CC50 is the concentration giving 50% cytotoxicity. A low value points to harm at low concentration. Usually solubility stands for the dissolved amount per volume that the medium holds. Higher therefore signals a readily soluble substance. A word on the pIC50: it is the negative decadic logarithm of the IC50, by convention in mol/L. High values mean a low IC50, low ones a high IC50. Take `CCC(=O)CCCCC[C@H](NC(=O)C1CN(C)C1)c1ncc(-c2cc3ccccc3nc2OC)[nH]1`: the Activity entry on Cytochrome P450 3A4 [1] is recorded as “Not Active”; at Cytochrome P450 3A4 [5] it was “Not Active”; in the data set on Mus musculus, “Non-toxic”. The results for the bioavailability in [2] and in [8] were 31% and 73%, respectively. Also, the microsomal CLint at 1 µM in data set [3] was found to be 29 µL/min/mg; in [6] it was 29 µL/min/mg; in [12] it was 31 µL/min/mg. For the same compound, the figures for the half-life in [4] and in [9] were 840 min and 420 min, respectively. The CC50 with A2780 was 740 nM; in the data set on A549 it was 490 nM; with U-937 it was 240 nM. For the same compound, the concentration in solution in [7] (solubility) was 13 mg/mL (≈ 27.2 mM). The negative-log IC50 (pIC50) at Histone deacetylase 7 was less than 5.00; in data set [11], 3.17. Also, the concentration at 24 h in [10] was more than 100 nM. In the data set with HCT-116, the result was Active. Moreover, in data set [13], the clearance was 19 mL/min/kg.
